Test results published in patent publication US20030013717A1, “Use of cox-2 inhibitors for constipation” (priority 2000, published 2003).

Columns and labels:
Beagle dogs = assay: Dog model of gastric emptying (solid phase, gamma camera); format: in vivo; details: po for three days, measured on fourth day after am dosing; cisapride 0.14 mg/kg TID, celecoxib 2.8 mg/kg BID, 8-acetyl compound 1.2 mg/kg BID; FIG. 3
Procedure: Activity in Vivo: Dog Model of Gastric Emptying
Beagle dogs were treated for three days with test agents (po administration): placebo BID; cisapride 0.14 mg/kg TID; celecoxib 2.8 mg/kg BID; or 8-acetyl-3-(4-fluoro-phenyl)-2-(4-methanesulfonyl-phenyl)-imidazo[1,2-a]pyridine 1.2 mg/kg BID. Solid phase gastric emptying was measured on the fourth day following am dosing. The same three animals were used for evaluation of each agent, thus reducing any interanimal variations.
Isotope-labeled solid food was fed to the dogs for their morning meal and animals were then placed under a gamma camera and scans performed over the 24 to 36 hours.

dogs = assay: Dog model of lower esophageal sphincter pressure (LESP); format: in vivo; details: 3 days treatment, measured day 4 after am dose; cisapride 0.14 mg/kg TID, celecoxib 1.2 mg/kg BID; compared to placebo; FIG. 4
Procedure: Activity in Vivo: Dog Model of Lower Esophageal Sphincter Pressure (LESP) Six adult dogs were instrumented with 14 French esophagostomy tubes. Animals were treated for 3 days with placebo (BID), cisapride (0.14 mg/kg TID) or celecoxib (1.2 mg/kg BID). On day 4 dogs received their am dose of test agent and water perfused manometry catheters were inserted through the esophagostomy tubes. Lower esophageal sphincter pressures (LESPs) were then monitored.

[1] = system: canine antrum circular muscles; assay: Smooth muscle in vitro model: antral circular muscle strips, acetylcholine-induced contraction; format: cell-based; details: test agent 10 μM; acetylcholine 1 μM; organ bath, Krebs solution; n=4-8 strips; FIG. 1
Procedure: Smooth Muscle in Vitro Model of Gastric Propulsion
Agents which stimulate antral smooth muscle activity would be expected to enhance the rate of gastric emptying by propulsion of contents in the aboral direction. By contrast, fundic relaxation could lead to delayed emptying of the stomach as the upper stomach would serve as a reservoir for gastric contents.
The effects of test agents were evaluated on strips of canine antrum circular muscles (n=4-8 strips) suspended in organ baths bathed with Krebs solution. Following establishment of baseline tension, acetylcholine (“ACh”; 1 μM), indomethacin (10 μM), or 8-acetyl-3-(4-fluoro-phenyl)-2-(4-methanesulfonyl-phenyl)-imidazo[1,2-a]pyridine (“8-Acetyl- . . . ”; 10 μM) were applied and tension changes monitored and recorded on a polygraph.

[2] = system: canine fundic circular muscle; assay: Smooth muscle in vitro model: fundic circular muscle strips, tension change; format: cell-based; details: test agent 10 μM; n=6-8 strips; FIG. 2
Rats = assay: Rat model of post-operative ileus (methylene blue meal transit); format: in vivo; details: 3 mg/kg intravenous infusion; four hours post-gavage; eight rats; p<0.05; vehicle 49.3 cm
Procedure: Activity in Vivo: Rat Model of Post Perative Ileus
The selective COX-2 inhibitor 2-(4-ethoxy-phenyl)-3-(4-methanesulfonyl-phenyl)-pyrazolo[1,5-b]pyridazine was evaluated in a rat model of post-operative ileus. The methodology represents a modification of the procedure described by McGill et al, Gastroenterology 116: A1040 (1999).
Rats (fourteen) received 0.5 cc of skimmed milk with methylene blue by gavage. Either vehicle (six rats) or 2-(4-ethoxy-phenyl)-3-(4-methanesulfonyl-phenyl)-pyrazolo[1,5-b]pyridazine (eight rats) was then administered by intravenous infusion. Rats were sacrificed four hours post-gavage and the distance the methylene blue meal traversed the intestine measured. The pylorus was set at 0 cm. With vehicle treatment, the meal traversed 49.3+1.3 cm while with 2-(4-ethoxy-phenyl)-3-(4-methanesulfonyl-phenyl)-pyrazolo[1,5-b]pyridazine (3 mg/kg), the meal traversed 67.8±1.1 cm (p<0.05).

COc1cc(N)c(Cl)cc1C(=O)NC1CCN(CCCOc2ccc(F)cc2)CC1OC (stereo not shown) [Cisapride, cisapride]
rate of solid phase gastric emptying (Beagle dogs): increased the rate of gastric emptying | lower esophageal sphincter pressure (LESP) (dogs): increased LESP

COc1ccc2c(c1)c(CC(=O)O)c(C)n2C(=O)c1ccc(Cl)cc1 [indomethacin]
sensitisation of antral circular muscle to acetylcholine-induced contractions [1]: enhanced acetylcholine-induced contractions | relaxation / tension change of fundic circular muscle [2]: near complete relaxation

CCOc1ccc(-c2nn3ncccc3c2-c2ccc(S(C)(=O)=O)cc2)cc1 [2-(4-ethoxy-phenyl)-3-(4-methanesulfonyl-phenyl)-pyrazolo[1,5-b]pyridazine]
distance the methylene blue meal traversed the intestine (pylorus = 0 cm) (Rats): 67.8±1.1 cm

CC(=O)c1cccn2c(-c3ccc(F)cc3)c(-c3ccc(S(C)(=O)=O)cc3)nc12 [8-acetyl-3-(4-fluoro-phenyl)-2-(4-methanesulfonyl-phenyl)-imidazo[1,2-a]pyridine]
rate of solid phase gastric emptying (Beagle dogs): increased the rate of gastric emptying | relaxation / tension change of fundic circular muscle [2]: only small changes in tension
